According to patent US12661410B2, “Compounds for targeted degradation of RET” (C4 Therapeutics, Inc., priority 2020, dated 2026):
Positions count from the first letter of the chain named. Like-named read-outs stand apart in the source and are kept apart here.

Columns and labels:
[1] = biological target: T1, RET(KD: 658-1114 G810R) (Homo sapiens, UniProt P07949, G810R); experiment: HiBiT-Degradation, RET G810R degradation assay (Nano-Glo HiBiT Lytic), 293T.165 cells; type: cell-based; conditions: for Emax / DC50: 6.0 hours; for Emax: % remaining protein, read-out: 293T.165 RET(KD: 658-1114 G810R) 6.0 hours (Emax); for DC50: read-out: 293T.165 RET(KD: 658-1114 G810R) 6.0 hours (DC50)
T1 construct: 658-1114; expressed in transfected cells; host or cells: 293T.165 (293T cells, generated in-house)
T1 sequence (P07949 658-1114 G810R): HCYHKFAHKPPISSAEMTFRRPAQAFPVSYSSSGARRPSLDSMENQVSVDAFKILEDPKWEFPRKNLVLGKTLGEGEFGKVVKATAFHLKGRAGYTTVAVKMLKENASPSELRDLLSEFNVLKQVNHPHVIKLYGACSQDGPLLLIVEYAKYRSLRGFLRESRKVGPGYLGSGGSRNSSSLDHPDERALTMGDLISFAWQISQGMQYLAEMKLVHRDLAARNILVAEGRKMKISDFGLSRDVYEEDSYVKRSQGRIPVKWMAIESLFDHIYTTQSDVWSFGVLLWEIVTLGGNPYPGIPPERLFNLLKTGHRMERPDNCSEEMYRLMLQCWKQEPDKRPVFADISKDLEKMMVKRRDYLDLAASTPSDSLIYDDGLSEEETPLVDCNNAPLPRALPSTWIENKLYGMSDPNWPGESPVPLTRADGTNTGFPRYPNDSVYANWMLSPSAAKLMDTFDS
Method in brief: (§1)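 Luminescence readout of HiBiT-tagged RET kinase domain remaining after 6 h compound exposure. Cells: 293T.144 (wild type) or 293T.165 (G810R), 11 half-log doses up to 10 μM, duplicates. DC50 and Emax as % remaining protein taken from curve fits.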

[2] = biological target: T2, RET (658-1114) (Homo sapiens, UniProt P07949); experiment: HiBiT-Degradation, RET wild-type degradation assay (Nano-Glo HiBiT Lytic), 293T.144 cells; type: cell-based; conditions: for DC50 / Emax: 6.0 hours; for DC50: read-out: 293T.144 RET (658-1114) 6.0 hours (DC50); for Emax: read-out: 293T.144 RET (658-1114) 6.0 hours (Emax)
T2 construct: 658-1114; expressed in transfected cells; host or cells: 293T.144 (293T cells, generated in-house)
T2 sequence (P07949 658-1114): T1 sequence (P07949 658-1114 G810R) with R153G
Method in brief: as §1

[3] = half-maximal degradation concentration

Compound: N#Cc1cnn2cc(-c3cnn(C4CCN(CCN5CCC(c6ccc(NC7CCC(=O)NC7=O)cc6F)CC5)CC4)c3)cc(-c3ccc(N4CCN(Cc5ccccn5)CC4)nc3)c12 (stereo not shown) [Compound 12, 6-(1-(1-(2-(4-(4-((2,6-Dioxopiperidin-3-yl)amino)-2-fluorophenyl)piperidin-1-yl)ethyl)piperidin-4-yl)-1H-pyrazol-4-yl)-4-(6-(4-(pyridin-2-ylmethyl)piperazin-1-yl)pyridin-3-yl)pyrazolo[1,5-a]pyridine-3-carbonitrile]
- Emax [1]: < 50%
- DC50 [1, 3]: < 100 nM
- 293T.165 RET(KD: 658-1114 G810R) 6.0 hours (Emax) ([1]; HiBiT-Degradation): +++ (<50% = +++)
- 293T.165 RET(KD: 658-1114 G810R) 6.0 hours (IP) [nM] ([1]; HiBiT-Degradation): ++++ (< 50 nM = ++++)
- DC50 ([1]; HiBiT-Degradation): < 100 nM
- 293T.144 RET (658-1114) 6.0 hours (IP) [nM] ([2]; HiBiT-Degradation): ++++ (< 50 nM = ++++)
- DC50 ([2]; HiBiT-Degradation): < 50 nM
- Emax ([2]; HiBiT-Degradation): < 30%

Compound: N#Cc1cnn2cc(-c3ccc(N4CCN(C(=O)CN5CCC(c6ccc(NC7CCC(=O)NC7=O)cc6F)CC5)CC4)cc3)cc(-c3ccc(N4CCN(C(=O)Cc5ccc(F)cn5)CC4)nc3)c12 (stereo not shown) [Compound 16, 6-[4-[4-[2-[4-[4-[(2,6-dioxo-3-piperidyl)amino]-2-fluoro-phenyl]-1-piperidyl]acetyl]piperazin-1-yl]phenyl]-4-[6-[4-[2-(5-fluoro-2-pyridyl)acetyl]piperazin-1-yl]-3-pyridyl]pyrazolo[1,5-a]pyridine-3-carbonitrile]
- Emax [1]: < 30%
- DC50 [1, 3]: < 100 nM
- 293T.165 RET(KD: 658-1114 G810R) 6.0 hours (Emax) ([1]; HiBiT-Degradation): ++++ (< 30% = ++++)
- 293T.165 RET(KD: 658-1114 G810R) 6.0 hours (IP) [nM] ([1]; HiBiT-Degradation): ++++ (< 50 nM = ++++)
- DC50 ([1]; HiBiT-Degradation): < 100 nM
- 293T.144 RET (658-1114) 6.0 hours (IP) [nM] ([2]; HiBiT-Degradation): ++++ (< 50 nM = ++++)
- DC50 ([2]; HiBiT-Degradation): < 50 nM
- Emax ([2]; HiBiT-Degradation): < 30%

Compound: N#Cc1cnn2cc(-c3cnn([C@H]4CC[C@H](N5CCN(c6cc(F)c(NC7CCC(=O)NC7=O)cc6F)CC5)CC4)c3)nc(-c3ccc(N4CC5COCC(C4)N5Cc4ccccn4)nc3)c12 (relative stereo) [Compound 161, 6-[1-[4-[4-[4-[(2,6-dioxo-3-piperidyl)amino]-2,5-difluoro-phenyl]piperazin-1-yl]cyclohexyl]pyrazol-4-yl]-4-[6-[9-(2-pyridylmethyl)-3-oxa-7,9-diazabicyclo[3.3.1]nonan-7-yl]-3-pyridyl]pyrazolo[1,5-a]pyrazine-3-carbonitrile]
- 293T.165 RET(KD: 658-1114 G810R) 6.0 hours (IP) [nM] [1]: ++++ (<50 nM = ++++)
- Emax [1]: < 30%
- DC50 [1, 3]: < 50 nM
- 293T.144 RET (658-1114) 6.0 hours (IP) [nM] [2]: ++++ (<50 nM = ++++)
- Emax ([2]; % remaining protein): < 30%
- DC50 [2, 3]: < 50 nM

Compound: N#Cc1cnn2cc(-c3cnn(C4CCN(C(=O)CC5(O)CCN(c6ccc(NC7CCC(=O)NC7=O)cc6F)CC5)CC4)c3)nc(-c3ccc(N4CCN(C(=O)c5cccnc5)CC4)nc3)c12 (stereo not shown) [Compound 106, 6-[1-[1-[2-[1-[4-[(2,6-dioxo-3-piperidyl)amino]-2-fluoro-phenyl]-4-hydroxy-4-piperidyl]acetyl]-4-piperidyl]pyrazol-4-yl]-4-[6-[4-(pyridine-3-carbonyl)piperazin-1-yl]-3-pyridyl]pyrazolo[1,5-a]pyrazine-3-carbonitrile]
- 293T.165 RET(KD: 658-1114 G810R) 6.0 hours (IP) [nM] [1]: ++++ (<50 nM = ++++)
- Emax [1]: < 50%
- DC50 [1, 3]: < 100 nM
- 293T.144 RET (658-1114) 6.0 hours (IP) [nM] [2]: ++++ (<50 nM = ++++)
- Emax ([2]; % remaining protein): < 30%
- DC50 [2, 3]: < 50 nM

Compound: COc1cc(N2CCN([C@H]3CC[C@H](n4cc(-c5cn6ncc(C#N)c6c(-c6ccc(N7C[C@H]8COC[C@@H](C7)N8Cc7ccc(F)cc7)nc6)n5)cn4)CC3)CC2)c(F)cc1NC1CCC(=O)NC1=O (relative stereo) [Compound 164, 6-[1-[4-[4-[4-[(2,6-dioxo-3-piperidyl)amino]-2-fluoro-5-methoxy-phenyl]piperazin-1-yl]cyclohexyl]pyrazol-4-yl]-4-[6-[(1R,5S)-9-[(4-fluorophenyl)methyl]-3-oxa-7,9-diazabicyclo[3.3.1]nonan-7-yl]-3-pyridyl]pyrazolo[1,5-a]pyrazine-3-carbonitrile]
- 293T.165 RET(KD: 658-1114 G810R) 6.0 hours (IP) [nM] [1]: +++ (<100 nM = +++)
- Emax [1]: < 30%
- DC50 [1, 3]: < 100 nM
- 293T.144 RET (658-1114) 6.0 hours (IP) [nM] [2]: ++++ (<50 nM = ++++)
- Emax ([2]; % remaining protein): < 30%
- DC50 [2, 3]: < 50 nM
